Values quoted from earlier work in patent publication US20050090554A1, “Treatment of gastroparesis and nonulcer dyspepsia with GABAB agonists” (priority 2003, published 2005).

Experiments:
[1] = with the exception of the upper small intestine (carrier-mediated transport)
[2] = administered isomer
[3] = compared with the S-isomer

Row | permeability in the GI tract [1] | Compound | arterial blood pressure and heart rate [2] | half-life [3] | metabolic clearance [3] | systemic exposure [3]
1 | poor permeability | NCC(CC(=O)O)c1ccc(Cl)cc1 (racemic) [baclofen, 4-amino-3-(p-chlorophenyl)-butyric acid] |  |  |  | 
2 |  | NC[C@@H](CC(=O)O)c1ccc(Cl)cc1 [(S)-baclofen] | decrease |  |  | 
3 |  | NC[C@H](CC(=O)O)c1ccc(Cl)cc1 [(R)-baclofen] | opposite effects | longer | lower | higher
